Test results published in article PMC9804224, “Statin activation of skeletal ryanodine receptors (RyR1) is a class effect but separable from HMG‐CoA reductase inhibition” (British Journal of Pharmacology, 2022).

Columns and labels:
Type in all cases: biochemical
[1] = target: T1, skeletal ryanodine receptor (RyR1) (Ovis aries, UniProt A0ACI6NWU0); assay: increase of [3H]ryanodine binding to SR membrane vesicles (channel activation); design: native RyR1 in skeletal muscle SR membrane vesicles
[2] = target: T1, skeletal ryanodine receptor (RyR1); assay: single-channel recording in planar lipid bilayers (activation); also [3H]ryanodine binding EC50 […]; design: native RyR1 channels from skeletal muscle heavy SR vesicles
[3] = target: T1, skeletal ryanodine receptor (RyR1); assay: as above; design: native RyR1 channels from skeletal muscle heavy SR vesicles; remark: listed apart in the source

## CC[C@H](C)C(=O)O[C@H]1C[C@H](O)C=C2C=C[C@H](C)[C@H](CC[C@@H](O)C[C@@H](O)CC(=O)O)[C@H]21 [pravastatin]
[1]
  EC50: 440 nM

## CC(C)c1nc(N(C)S(C)(=O)=O)nc(-c2ccc(F)cc2)c1/C=C/[C@@H](O)C[C@@H](O)CC(=O)O [rosuvastatin]
[1]; read-out: EC50
  EC50: 490 nM

## COCc1c(C(C)C)nc(C(C)C)c(/C=C/[C@@H](O)C[C@@H](O)CC(=O)O)c1-c1ccc(F)cc1 [cerivastatin]
[2]
  EC50: 130 nM

## CC(C)c1c(C(=O)Nc2ccccc2)c(-c2ccccc2)c(-c2ccc(F)cc2)n1CC[C@@H](O)C[C@@H](O)CC(=O)O [atorvastatin]
[3]
  EC50: 29 nM
